Test results: US20070059385A1, “Safe pharmaceutical composition for treating and preventing cancer and method of use” (priority 2005, published 2007)
Read-outs that look alike come from different tables or passages of the source.

Tests used:
[1] = dog, in vivo
Description: Twenty normal adult dogs which weight approximately 10 kg±1 kg used in experiments.
Most deaths were caused by cardiac dysfunction.

kidney cell cultures = test: Analysis of chromosomes (chromosomal aberrations in kidney); type: in vivo
Procedure: For metaphase chromosomes, kidney cell cultures were treated with colchicines (0.4 μg/ml) for 3-4 hours. The cells were then trypsinized and treated with hypotonic solution (0.075 M KCl) at 37° C. for 30 minutes. The cell suspensions were centrifuged and the pellets fixed in cold acetic acid:methanol (1:3) solution. Slides were prepared by standard air-drying method and stained with 2% Giemsa solution. The results scored by analyzing at least 200 well spread metaphases with 44±2 chromosomes for gaps, chromatid and chromosome breaks and exchanges, and association. Chromatid and chromosome aberrations were scored separately, and the total percentage was subjected to statistical analysis. Gaps were recorded but not included in the total frequency. Endoreduplication (endomitosis) was estimated from at least 500 cells/animal and expressed as a percentage.

[2] = Toxic dose for mice (LD50); type: in vivo
L615 transplanted tumor = test: Growth of transplanted tumor in mice; type: in vivo; settings: intraperitoneally, sacrificed on the 12th day
Procedure: Male mice, weight 20-22 g, were used in the experiment. 1×10^7 tumor cells were injected to mouse and other drugs injected intraperitoneally began second day. All mice were sacrificed on the 12th day, isolated the tumor and weighed and calculated the inhibition rate of tumor weight.
The effect of other drugs and HHT on the growth of animal transplanted tumor as illustrated by the Table 6.20 mg/kg of other drugs could inhibit the growth of L615 transplanted tumor.

carcinogen-DNA binding = test: Inhibition of carcinogen-DNA binding; type: cell-based
Procedure: Cells were maintained in 75-cm^2 tissue culture flask with media supplemented with retinoic acid (0.1 μg/ml) and epinephrine (0.5 μg/ml). The cells were passage when they reached approximately 80% confluence and were maintained at 37° C. in 5% CO2. Cells were plated at a density of 5×10^5 cells/well in 6-well tissue culture plates and allowed to incubated for 18 h at 37° C. in 5% CO2. Following incubation, the DNA was harvested and resuspended in Tris-EDTA buffer. RNA was removed by treating with RNase T1 and RNase A at 37° C. for 1 h. An aliquot was used for determining the DNA content by the absorbency at 260 nm, and the rest of the sample was used to determine the radioactivity; the percentage inhibition of carcinogen-DNA binding was determined by measuring the cpm/mg of DNA in the carcinogen.

Normal cells = test: Apoptosis of normal cells; type: cell-based
Procedure: Cells ([…] were incubated in 10 ml IMDM plus […] heat-inactivated fetal calf serum. Samples were incubated for 24 hours with various concentrations of drugs. Control samples received the same amount of media, without drug addition. After 24 hours of incubation the samples were pelleted and fixed in ethanol […] for 15 minutes at 4° C.; after three washes in PBS, the cells were treated with RNase I 0.5 mg/ml for 15 minutes at 37° C. The cells were harvested by centrifugation and resuspended in 50 μg/ml propidium iodide in PBS. Analysis (upon acquisition of 10,000-20,000 events) was performed on a FACscan flow cytometer with the FL2 detector in logarithmic mode, using Lysis II software (Becton Dickinson). Apoptotic cells were located in the hypodiploid region of the histogram, due to chromosome condensation and fragmentation.
For evaluation of apoptosis by flow cytometry, cells were fixed and permeabilized in 1% paraformaldehyde and ice-cold 70% ethanol. Digoxigenin-dUTP was incorporated at the 3′OH ends of the fragmented DNA in the presence of terminal deoxynucleotidyltranserase, and the cells were incubated with FITC-labeled anti-digoxigenin-dUTP and with propidium iodide. Green (apoptotic cells) and orange (total DNA) fluorescence were measured with a FACScan flow cytometer and analyzed with LYSIS II and CELLFIT programs. Data were analyzed by Student's t-test. P values were considered significant when <0.05. […]

[3] = duration of treatment 0.5 months
[4] = duration of treatment 1.0 months
[5] = duration of treatment 2.0 months
[6] = duration of treatment 3.0 months
[7] = duration of treatment 4.0 months
[8] = duration of treatment 5.0 months

SMILES: COC(=O)C[C@](O)(CCCC(C)(C)O)C(=O)O[C@@H]1C(OC)=C[C@]23CCCN2CCc2cc4c(cc2[C@H]13)OCO4 [HHT, Homoharringtonine]
- major target organs involved in toxicity [1]: limited to G.I. tract, heart and hematopoietic organs
- reversibility of toxicities [1]: completely reversible upon discontinuation of treatment
- Abnormality of ECG, ST-T ([1]; 0.1 mg/kg/day): −
- Anorexia ([1]; 0.1 mg/kg/day): +
- Cardiac necrosis ([1]; 0.1 mg/kg/day): −
- Diarrhea ([1]; 0.1 mg/kg/day): ±
- Hepatic ecchymosis ([1]; 0.1 mg/kg/day): −
- Hepatic fibrosis and cirrhosis ([1]; 0.1 mg/kg/day): −
- Hepatic necrosis ([1]; 0.1 mg/kg/day): −
- Marrow depression ([1]; 0.1 mg/kg/day): +
- Renal necrosis ([1]; 0.1 mg/kg/day): −
- Renal toxic nephropathy ([1]; 0.1 mg/kg/day): −
- Seminal depression ([1]; 0.1 mg/kg/day): −
- Spleen necrosis ([1]; 0.1 mg/kg/day): −
- Vomiting ([1]; 0.1 mg/kg/day): +
- Abnormality of ECG, ST-T ([1]; 0.2 mg/kg/day): ±
- Anorexia ([1]; 0.2 mg/kg/day): ++
- Cardiac necrosis ([1]; 0.2 mg/kg/day): −
- Diarrhea ([1]; 0.2 mg/kg/day): +
- Hepatic ecchymosis ([1]; 0.2 mg/kg/day): −
- Hepatic fibrosis and cirrhosis ([1]; 0.2 mg/kg/day): −
- Hepatic necrosis ([1]; 0.2 mg/kg/day): ±
- Marrow depression ([1]; 0.2 mg/kg/day): +
- Renal necrosis ([1]; 0.2 mg/kg/day): −
- Renal toxic nephropathy ([1]; 0.2 mg/kg/day): −
- Seminal depression ([1]; 0.2 mg/kg/day): −
- Spleen necrosis ([1]; 0.2 mg/kg/day): −
- Vomiting ([1]; 0.2 mg/kg/day): +
- Abnormality of ECG, ST-T ([1]; 0.3 mg/kg/day): +
- Anorexia ([1]; 0.3 mg/kg/day): +++
- Cardiac necrosis ([1]; 0.3 mg/kg/day): ±
- Diarrhea ([1]; 0.3 mg/kg/day): +
- Erythrocyte count ([1]; 0.3 mg/kg/day): 3.40 ×10^6/mm^3
- Hepatic ecchymosis ([1]; 0.3 mg/kg/day): ±
- Hepatic fibrosis and cirrhosis ([1]; 0.3 mg/kg/day): ±
- Hepatic necrosis ([1]; 0.3 mg/kg/day): +
- Marrow depression ([1]; 0.3 mg/kg/day): ++
- Renal necrosis ([1]; 0.3 mg/kg/day): ±
- Renal toxic nephropathy ([1]; 0.3 mg/kg/day): ±
- Seminal depression ([1]; 0.3 mg/kg/day): −
- Spleen necrosis ([1]; 0.3 mg/kg/day): ±
- Vomiting ([1]; 0.3 mg/kg/day): ++
- % Aberrant cells (mean ± SEM) (kidney cell cultures; [3]): 0.5 ± 0.1%
- Aberration/100 cells, Chromosome Breaks (kidney cell cultures; [3]): 0.1 /100 cells
- % Aberrant cells (mean ± SEM) (kidney cell cultures; [4]): 0.8 ± 0.2%
- Aberration/100 cells, Chromosome Breaks (kidney cell cultures; [4]): 0.5 /100 cells
- % Aberrant cells (mean ± SEM) (kidney cell cultures; [5]): 1.2 ± 0.4%
- Aberration/100 cells, Chromosome Breaks (kidney cell cultures; [5]): 0.7 /100 cells
- Aberration/100 cells, Chromosome Exchanges (kidney cell cultures; [5]): 0.1 /100 cells
- % Aberrant cells (mean ± SEM) (kidney cell cultures; [6]): 1.8 ± 0.7%
- Aberration/100 cells, Chromosome Breaks (kidney cell cultures; [6]): 0.9 /100 cells
- % Aberrant cells (mean ± SEM) (kidney cell cultures; [7]): 2.6 ± 0.8%
- Aberration/100 cells, Chromosome Breaks (kidney cell cultures; [7]): 1.2 /100 cells
- Aberration/100 cells, Chromosome Exchanges (kidney cell cultures; [7]): 0.1 /100 cells
- % Aberrant cells (mean ± SEM) (kidney cell cultures; [8]): 5.5 ± 0.5%
- Aberration/100 cells, Chromosome Breaks (kidney cell cultures; [8]): 1.3 /100 cells
- Aberration/100 cells, Chromosome Exchanges (kidney cell cultures; [8]): 0.2 /100 cells
- mice died ([2]; 38 normal mice, 2 mg/kg/day×5, observation period of 5 days): about 50%
- LD50 ([2]; mouse, in vivo, ip, mice, I.P.): 3.17 ± 0.19 mg/kg
- Inhibition (%) of transplanted tumor (tumor weight) (L615 transplanted tumor): 68 ± 7.2%
- Inhibition (%) of carcinogen-DNA binding (carcinogen-DNA binding): 56.8 ± 6.2%
- Apoptosis (%) (Normal cells; HHT 10 ng/ml): 16.5 ± 2.0 %
- Apoptosis (%) (Normal cells; HHT 50 ng/ml): 18.5 ± 2.5 %
- Apoptosis (%) (Normal cells; HHT 100 ng/ml): 22.0 ± 3.5 %
- Apoptosis (%) (Normal cells; HHT 500 ng/ml): 29.5 ± 5.2 %
- Apoptosis (%) (Normal cells; Table 4, HHT (50 ng/ml) alone or in combination): 18.5 ± 2.5%
